Experimental data as given in US9604987B2, “Synthesis of autophagy inducing compound and the uses thereof” (Hong Kong Baptist University, priority 2012, dated 2017).
Like-named read-outs stand apart in the source and are kept apart here.

Key:
N2a cells = experiment: Western blot of autophagy marker LC3-II in N2a cells; assay type: cell-based, mouse; settings: for pro-autophagic activity (LC3II protein signal): various concentrations, 12 hrs
Procedure: Native and denatured PAGE and Western blotting analysis. Samples to be run under denaturing conditions were lysed with RIPA lysis buffer (150 mM NaCl, 50 mM Tris-HCl, 0.35% sodium deoxycholate, 1 mM EDTA, 1% NP40, 1 mM PMSF, 5 μg/ml aprotinin, 5 μg/ml leupeptin). Samples for native gels were lysed with detergent-free lysis buffer (50 mM Tris/HCl pH 7.4, 175 mM NaCl, 5 mM EDTA pH 8.0, 1 mM PMSF, 5 μg/ml aprotinin, 5 μg/ml leupeptin), and sheared 5 times through a 28-gauge needle followed by 2 times of sonication for 5 seconds according to previously described protocol. For denaturing, SDS-PAGE was performed using Tris-Glycine SDS running buffer and SDS sample buffer, and for native conditions, native-PAGE was run with detergent-free Tris-Glycine running buffer (BN2007, Invitrogen) and 4× native sample buffer (BN2003, Invitrogen) on a pre-casted native PAGE gel (BN1002BOX, Invitrogen). The proteins on the gels were then transferred to PVDF membrane (RPN303F, GE Healthcare) and processed for immunoblotting. Membranes were blocked with 5% non-fat milk and probed with the appropriate primary and secondary antibodies. The desired bands were visualized using the ECL kit (32106, Pierce). The band density was quantified using the ImageJ program and normalized to that of the control group.
In order to confirm the neuronal autophagy inducing activity of Cory B (its chemical structure is shown in FIG. 1A), mouse neuroblastoma N2a, rat phenochromocytoma PC12 and human neurobastoma SH-SY5Y are treated with different concentrations of Cory B for 24 hours and cell lysates are subjected to western blotting analysis of LC3-II expression which is an autophagy-specific marker.
To confirm that enhancement of autophagy markers by Cory B is due to induction of autophagy rather than blockage of autophagosome maturation, N2a cells are treated with 25 μM Cory B or 30 μM lysosome inhibitor CQ together with Cory B for 12 hours. Cell lysates are subject to western blot analysis. Data are presented as the mean±SEM from 3 independent experiments (***p<0.001, one-way ANOVA for multiple comparison and Tukey's test as post hoc test). Both LC3-II levels and the number of GFP-LC3 puncta in the Cory B and CQ co-treatment group are much higher than in the CQ-alone treatment group (FIG. 2A-D). Meanwhile, Cory B induces GFP-LC3 puncta formation is abolished by treatment of 5 mM autophagy inhibitor 3-MA for 24 hours (FIG. 2C, D). Cells were fixed in 4% paraformaldehyde and analyzed under a confocal microscope. Data are presented as the mean±SEM of one representative experiment from three independent experiments. (***p<0.001, one-way ANOVA for multiple comparison and Tukey's test as post hoc test). […] Thus, Cory B is indeed an autophagy inducer in neuronal cells.
To compare the activities of oxindole alkaloids on autophagy induction, LC3II expression levels in N2a cells after treatment with Corynoxine B (Cory B) (FIG. 8A), Corynoxine (Cory) (FIG. 8B), Rhynchophylline (Rhy) (FIG. 8C) and Isorhynchophylline (IsoRhy) for 12 hours are examined.
In order to examine the pro-autophagic activities of the synthesized Cory B analogues, neuroblastoma 2a, a neuronal cell line, are treated with various concentrations of the analogues for 12 hrs. The cells are then harvested and lysed with RIPA buffer (150 mM NaCl, 50 mM Tris-HCl pH 7.4, 0.35% sodium deoxycholate, 1 mM EDTA, 1% NP40, 1 mM PMSF, 5 μg/ml aprotinin, 5 μg/ml leupeptin). The sample are lysed on ice with occasional vortex for 30 min, and then centrifuged at 14,000 rpm for 15 min at 4° C. The supernatant are collected and denatured at 95° C. in sample buffer for 5 min. The denatured samples are then separated on 15% SDS-PAGE gels and transferred to PVDF membrane. Membranes are then blocked with 5% non-fat milk and probed with appropriate primary and secondary antibodies. The protein signals of LC3II, marker protein of autophagy, are finally visualized with ECL kit and the protein bands density are quantified by ImageJ program. […]

[1] = Pharmacokinetic study of Cory B, CB6 and CB8 in rats (plasma, LC/MS/MS, NCA); parameters: species or system Male Sprague-Dawley (SD) rats; settings: rat, in vivo, 1 mg/kg; for AUC / Cmax / MRT / half-life: male, Sprague-Dawley
Procedure: Male Sprague-Dawley (SD) rats (weighting ˜200 g) used in the experiment are provided by Laboratory Animal Services Center of The Chinese University of Hong Kong (Hong Kong SAR, People's Republic of China). Cory B (n=3), CB6 (n=6) and CB8 (n=6). For the jugular vein cannulation surgery, the rats are anesthetized (intramuscular injection of a mixture of 80 mg/kg ketamine and 8 mg/kg xylazine) followed by inserting a polyethylene tube (0.5 mm ID, 1 mm OD, Portex Ltd., England) into the right jugular vein. The cannulated rats are allowed to recover overnight while fasting with free access to water. For intravenous (IV) administrations, Cory B, CB6 or CB8 (200 μg/mL, dissolved in saline containing 9.2% PEG400+0.5% DMSO, w/w) is given through the jugular vein catheter at 1 mg/kg. For intranasal (IN) administration, 10 μL of Cory B, CB6 or CB8 (10 mg/mL, dissolved with 40% PEG400, 10% DMSO in H2O, w/w) is given to each nostril of rats. At pre-determined time points post-dosing (5, 10, 20, 30, 60, 120, 240 and 360 min for IV and IN administration groups), approximately 200 μL blood is collected into a heparinized centrifuge tube containing 5 μM EDTA followed by centrifugation at 3000 rpm for 5 min to obtain the plasma. To 100 μL rat plasma sample, an aliquot of 100 μL internal standard (IS) and 100 μL of acetonitrile are added. The mixture is mixed for 1 min by vortex and then centrifuged for 10 min at 13,200 rpm. 200 μL of supernatant is transferred into centrifuge tubes and mixed with 200 μL of H2O containing 4% formic acid (FA). After another round of vortex and centrifugation, 10 μL of the supernatant is subjected to LC/MS/MS for quantification of Cory B, CB6 or CB8 with an established LC/MS/MS method. Pharmacokinetic parameters from non-compartmental analysis (NCA) are calculated using WinNonLin. The pharmacokinetic parameters and profiles of each analytes are shown as below.

Row | Compound | pro-autophagic activity (LC3II protein signal) (N2a cells; N2a) | AUC ([1]; inhaled or intranasal) [ng·h/mL] | Cmax ([1]; inhaled or intranasal) [ng/mL] | MRT ([1]; inhaled or intranasal) [h] | half-life ([1]; inhaled or intranasal) [h] | AUC ([1]; iv) [ng·h/mL] | Cmax ([1]; iv) [ng/mL] | MRT ([1]; iv) [h] | half-life ([1]; iv) [h] | Tmax (time to reach Cmax) ([1]; inhaled or intranasal) [min] | Cmax and Area Under Curve (AUC) in comparison Cory B ([1]; iv) | also measured
1 | CC[C@@H]1CN2CC[C@]3(C(=O)Nc4ccccc43)C2C[C@@H]1C(=COC)C(=O)OC (stereo partly drawn) [Cory B, Corynoxine B] |  |  |  |  |  |  |  |  |  |  |  | LC3-II levels and number of GFP-LC3 puncta, co-treatment with CQ versus CQ alone (N2a cells; 25 μM Cory B + 30 μM CQ, 12 hours): much higher; LC3-II levels (N2a cells; N2a, 0-25 μM, 24 hours): increases levels of LC3-II; autophagy induction (LC3II expression level) (N2a cells; N2a, oxindole alkaloids, 12 hours): significantly activate autophagy; AUC ([1]; inhaled or intranasal, rats, intranasal, read-out: AUC (area under the curve) (converted)): 92.6 ng·h/mL; Cmax ([1]; inhaled or intranasal, rats, intranasal, read-out: Cmax (maximum plasma concentration)): 145 ± 62 ng/mL; MRT ([1]; inhaled or intranasal, rats, intranasal, read-out: MRT (mean residence time) (converted)): 2.22 h; half-life ([1]; inhaled or intranasal, rats, intranasal, read-out: t1/2 (plasma half-life)): 1.93 ± 0.233 h; AUC ([1]; rats, intravenous, read-out: AUC (area under the curve) (converted)): 63.6 ng·h/mL; Cmax ([1]; rats, intravenous, read-out: Cmax (maximum plasma concentration)): 66 ± 8 ng/mL; MRT ([1]; rats, intravenous, read-out: MRT (mean residence time) (converted)): 2.3 h; half-life ([1]; rats, intravenous, read-out: t1/2 (plasma half-life)): 2.13 ± 0.367 h
2 | C=CCN1C(=O)[C@]2(CCN3C[C@@H](CC)[C@@H](/C(=C\OC)C(=O)OC)C[C@H]32)c2ccccc21 [CB8] | novel autophagy inducer | 124 | 129 ± 61 | 1.95 | 1.65 ± 0.217 | 102 | 143 ± 42 | 1.65 | 1.87 ± 0.433 | 5 ± 0 | greater | 
3 | CCCN1C(=O)[C@]2(CCN3C[C@@H](CC)[C@@H](/C(=C\OC)C(=O)OC)C[C@H]32)c2ccccc21 [CB6] | novel autophagy inducer | 200 | 244 ± 33 | 1.83 | 1.93 ± 0.133 | 248 | 520 ± 177 | 1.58 | 2 ± 0.25 | 5 ± 0 | greater | 
